Values after ≈ are worked out from the molar mass of the structure shown. Where two headings read alike, the source gives them in different places.
Experiments:
[1] = tested on: CT26 mouse colon cancer cells;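 further: MTT read-out taken as absorbance at 562 nm after a 3 h dye incubation, medium-only wells as blank, values averaged over three independent experiments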
Protocol: (§1) CT26 cells (MC38 cells, 4T1 cells, B16FIO cells, HePa1-6 cells, H22 cells, LLC cells, MB49 cells, P388 cells, C6 cells, BXPC-3 cells, Hela cells, MDA-MB-231 cells, A2780 cells. PC3 cells. HepG2 cells, and HGC-27 cells) were cultured at 5,000 cells/well in a 96-well plate, 100 μL of a medium was added to each well, and the cells were incubated in a 37° C. constant-temperature incubator with 5% CO2 and 95% humidity for 24 h. 100 μL of different concentrations of drugs (DOX: 0.01 μg/mL to 10 μg/mL; PTX: 0.01 μg/mL to 50 μg/mL; Cela: 0.05 μg/mL to 1 μg/mL; sensitizer: 5 μg/mL) were added to each well, while 100 lit of a medium solution was added to the blank group. After culturing for 48 h, centrifugation was conducted at 1,100 rpm for 6 min, the medium in each well was discarded, 100 μL of an 11,11T working solution was added, and the culturing was continued for 3 h. Centrifugation was conducted at 3,300 rpm. for 5 min, the MITT medium in each well was discarded, 100 pt, of the DMSO was added, and the plate was shaken for 5 min to dissolve all crystals in each well. An absorbance of the sample at 562 nm was detected by a microplate reader. Each set of data was an average of three independent experimental results on the same sample.

[2] = tested on: CT26 mouse colon cancer cells; assay: Cytotoxicity (MTT) in combination with chemotherapeutic drugs;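 further: MTT read-out taken as absorbance at 562 nm after a 3 h dye incubation, medium-only wells as blank, values averaged over three independent experiments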
Protocol: as §1

[3] = tested on: mRNA expression of PD-L1 in CT26 cells; assay: PD-L1 mRNA expression in tumor cells by qPCR; format: cell-based, mouse; conditions: 5 μM, 48 h, GAPDH internal reference
Protocol: CT26 cells were inoculated in a 6-well plate at 2×10^5 cells per well and placed in a 37° C. incubator. After the cells adhered, DMSO solutions (5 μM) of the compounds of the present disclosure were added separately, and the incubation was continued for 48 h. Total RNA was lysed and extracted, and reverse transcription and PCR experiments were conducted to detect an RNA level of PD-L1 in CT26 cells, using a GAPDH gene as an internal reference.

[4] = tested on: calreticulin in CT26 tumor cells; assay: Drug-induced immunogenic death (calreticulin, confocal); format: cell-based, mouse; conditions: doxorubicin-induced CT26 tumor cells, combination with DOX vs DOX alone, 24 h
Protocol: CT26 cells were plated in confocal culture dishes, and after overnight cell adherence, different drug treatment groups were added, and the incubation was continued for 24 h. The medium was discarded, the cells were rinsed 3 times with PBS, and fixated with 4% paraformaldehyde for 10 min. The cells were rinsed 3 times with PBS for 3 min each time, a 3% BSA solution was added for blocking for 30 min at 37° C., and the blocking solution was removed with absorbent paper. 200 μuL of a calreticulin antibody (FITC-anti-CRT, 1:200) was added to each well and incubated at room temperature for I h in the dark. The cells were rinsed with PBS 3 times for 3 min each time, then a DAPI staining solution was added to each dish and incubated in the dark for 5 min. After washing three times with PBS, the cells were observed under a laser con focal microscope.

[5] = tested on: HIF-1α expression in CT26 cells; assay: HIF-1α expression in tumor cells by flow cytometry; format: cell-based, mouse; conditions: 5 μM, 24 h
Protocol: CT26 cells were evenly plated in a 6-well plate at 2×10^4 cells per well. After the cells adhered, DMSO solutions (5 μM) of the different compounds of the present disclosure were added separately, and the incubation was continued for 24 h. The medium was discarded, the cells were rinsed three times with PBS, and 0.2 mL of trypsin containing EDTA was added to each well. The digested cells were collected in a flow tube, and a supernatant was removed by centrifugation; the cells were resuspended in a PBS containing 5% goat serum, and an FITC anti-mouse HIF-1α antibody (1 μg/1×10^6 cells) was added, incubated at 4° C. for 30 min, and washed three times with PBS, and subjected to flow detection on-machine.

[6] = tested on: Raw264.7 M2 tumor-associated macrophages (TAM2s); assay: Polarization of macrophages from M2 to M1 (PCR); format: cell-based, mouse; conditions: IL-4-induced TAM2s, 5 μM, 24 h, vs untreated TAM2s
Protocol: A mouse macrophage cell line Raw264.7 was inoculated in a 24-well plate. After 12 hours of cell adhesion, the cells were further cultured for one day in a medium containing IL-4 (40 ng/mL) to induce the cells to differentiate into M2 tumor-associated macrophages (TAM2s). DMSO solutions (5 μM) of different groups of the compounds of the present disclosure were added to the TAM2s to treat for 24 h, the cells were collected and lysed, and a total RNA was extracted. The total RNA was subjected to reverse transcription and PCR experiments to detect the RNA levels of an M2 macrophage-specific protein argl and an M1 macrophage-specific protein Nos2 with an hprt gene as an internal reference.

[7] = tested on: PD-L1 expression in CT26 cells; assay: PD-L1 expression in tumor cells by Western blot; format: cell-based, mouse; conditions: 5 μM, 48 h
Protocol: CT26 cells were inoculated in a 6-well plate at 2×10^4 cells per well and placed in a 37° C. incubator. After the cells adhered, DMSO solutions (5 μM) of compounds 1 to 8 were added separately, and the incubation was continued for 48 h. The medium was discarded, the cells were rinsed three times with pre-cooled PBS, and the washing solution was discarded. 0.2 nrii, of a cell lysis solution containing a protease inhibitor was added to each well and placed on ice to conduct lysis for 30 min.
After the lysis was completed, a lysate and cell debris were scraped to one side of the Petri dish with a cell scraper, the lysate was transferred to a 1.5 mL Ep tube with a pipette, centrifuged at 4° C. (12,000 rpm/5 min), and a supernatant was collected to determine its protein concentration.
The protein sample was diluted with a 1UPAlysis buffer to a certain concentration, 5×SDS loading buffer was added in a protein amount of 1 μg/μL, incubated on a metal bath at 95° C. for 5 min, cooled to room temperature, and the sample was loaded to an SDS-PAGE electrophoresis gel (5% for stacking gel and 12% for resolving gel). Under a voltage of 90 V, the protein was run to the bottom of the stacking gel to form a straight line, then the voltage was adjusted to 125 V, and the electrophoresis was stopped after the bromophenol blue appeared. […]

[8] = tested on: PD-L1 expression in CT26 cells; assay: PD-L1 expression in tumor cells by flow cytometry; format: cell-based, mouse; conditions: 24 h, blank group 32.7%
Protocol: CT26 cells were inoculated in a 6-well plate at 2×10^4 cells per well. After the cells adhered. […] The medium was discarded, the cells were rinsed three times with PBS, and 0.2 mL of trypsin containing EDTA was added to each well. The digested cells were collected in a flow tube, and a supernatant was removed by centrifugation. The cells were resuspended in a PBS containing 5% goat serum, and an anti-mouse PD-L1 primary antibody (1 μg/1×10^6 cells) was added, and the cells were incubated at 4° C. for 30 min and washed three times with PBS. An equivalent amount of APC-labeled goat anti-rabbit secondary antibody was added and incubation was continued for 30 min; the cells were washed 3 times with PBS and subjected to flow detection on-machine.

[9] = tested on: BXPC-3 human pancreatic cancer cells; assay: Cytotoxicity (MTT) in combination with DOX; format: cell-based; conditions: 48 h, sensitizer 5 μg/mL in the combination
Protocol: as §1

[10] = tested on: 4T1 mouse breast cancer cells; assay: Cytotoxicity (MTT) in combination with DOX; format: cell-based; conditions: 48 h, sensitizer 5 μg/mL in the combination
Protocol: as §1

[11] = tested on: MC38 mouse colon cancer cells; assay: Cytotoxicity (MTT) in combination with DOX; format: cell-based; conditions: MC-38, 48 h, sensitizer 5 μg/mL in the combination
Protocol: as §1

[12] = tested on: Hela human cervical cancer cells; assay: Cytotoxicity (MTT) in combination with DOX; format: cell-based; conditions: 48 h, sensitizer 5 μg/mL in the combination
Protocol: as §1

C6 rat glioma cells = assay: Cytotoxicity (MTT) in combination with DOX; format: cell-based; conditions: Glioma cell, 48 h, sensitizer 5 μg/mL in the combination
Protocol: as §1

H22 mouse hepatoma cells = assay: Cytotoxicity (MTT) in combination with DOX; format: cell-based; conditions: 48 h, sensitizer 5 μg/mL in the combination
Protocol: as §1

[13] = tested on: HepG2 human hepatoma cells; assay: Cytotoxicity (MTT) in combination with DOX; format: cell-based; conditions: 48 h, sensitizer 5 μg/mL in the combination
Protocol: as §1

[14] = tested on: MB49 mouse bladder cancer cells; assay: Cytotoxicity (MTT) in combination with DOX; format: cell-based; conditions: 48 h, sensitizer 5 μg/mL in the combination
Protocol: as §1

[15] = tested on: HePa1-6 mouse hepatoma cells; assay: Cytotoxicity (MTT) in combination with DOX; format: cell-based; conditions: 48 h, sensitizer 5 μg/mL in the combination
Protocol: as §1

[16] = tested on: P388 mouse lymphoma cells; assay: Cytotoxicity (MTT) in combination with DOX; format: cell-based; conditions: 48 h, sensitizer 5 μg/mL in the combination
Protocol: as §1

[17] = tested on: A2780 Human ovarian cancer cells; assay: Cytotoxicity (MTT) in combination with DOX; format: cell-based; conditions: 48 h, sensitizer 5 μg/mL in the combination
Protocol: as §1

[18] = tested on: B16F10 mouse melanoma cells; assay: Cytotoxicity (MTT) in combination with DOX; format: cell-based; conditions: B16-F10, 48 h, sensitizer 5 μg/mL in the combination
Protocol: as §1

[19] = tested on: MDA-MB-231 human breast cancer cells; assay: Cytotoxicity (MTT) in combination with DOX; format: cell-based; conditions: 48 h, sensitizer 5 μg/mL in the combination
Protocol: as §1

[20] = tested on: PC3 human prostate cancer cells; assay: Cytotoxicity (MTT) in combination with DOX; format: cell-based; conditions: 48 h, sensitizer 5 μg/mL in the combination
Protocol: as §1

[21] = tested on: LLC mouse lung cancer cells; assay: Cytotoxicity (MTT) in combination with DOX; format: cell-based; conditions: 48 h, sensitizer 5 μg/mL in the combination
Protocol: as §1

[22] = tested on: HGC-27 human gastric cancer cells; assay: Cytotoxicity (MTT) in combination with DOX; format: cell-based; conditions: 48 h, sensitizer 5 μg/mL in the combination
Protocol: as §1

[23] = CT26 cell line, chemotherapeutic drug in combination with compound 7 (sensitizer 5 μg/mL), 48 h

CC[C@]1(O)C[C@H]2CN(CCc3c([nH]c4ccccc34)[C@@](C(=O)OC)(c3cc4c(cc3OC)N(C=O)[C@H]3[C@@](O)(C(=O)OC)[C@H](OC(C)=O)[C@]5(CC)C=CCN6CC[C@]43[C@@H]65)C2)C1 [Vincristine]
IC50 [1]: 68.2 ± 2.29 mg/L (≈ 82.6 µM)
IC50, Compound 7+ [2, 23]: 44.312 ± 1.851 mg/L

O=C1[O][Pt]2([NH][C@@H]3CCCC[C@H]3[NH]2)[O]C1=O [Eloxatin]
IC50, Compound 7+ [2, 23]: 2.497 ± 0.185 mg/L

Cc1nc(C(=O)NCC(=O)O)c(O)c2ccc(Oc3ccccc3)cc12 [compound 7, N-(4-Hydroxy-1-methyl-7-phenoxyisoquinoline-3-carbonyl)glycine]
mRNA expression level of PD-L1 [3]: best effect
calreticulin expression (immunogenic death) [4]: express more calreticulin
reduction of HIF-1α [5]: 45%
expression of HIF-1α in tumor cells ([5]; vs blank control): best effect
RNA level of M1 macrophage-specific protein Nos2 [6]: significantly increased
RNA level of M2 macrophage-specific protein argl [6]: significantly decreased
cell viability, combination with chemotherapeutic drug DOX vs chemotherapeutic drug alone ([2]; CT26 cells, sensitizer 5 μg/mL, 48 h): best effect
toxicity of doxorubicin (DOX), paclitaxel (PTX), oxaliplatin (OXA) or camptothecin (irinotecan, SN38) on CT26 cells ([2]; combination with compound 7, 48 h): increase the toxicity
expression of PD-L1 in tumor cells (Western blot) [7]: best effect
PD-L1 expression rate ([8]; 10 μM compound 7 group): 18.8%
PD-L1 expression rate ([8]; 2.5 compound 7 group): 24%
PD-L1 expression rate ([8]; 5 1μM compound 7 group): 20.8%

COc1cccc2c1C(=O)c1c(O)c3c(c(O)c1C2=O)C[C@@](O)(C(=O)CO)C[C@@H]3O[C@H]1C[C@H](N)[C@H](O)[C@H](C)O1 [DOX, doxorubicin]
IC50 [9]: 14.2 ± 1.68 mg/L
IC50 [10]: 1.76 ± 0.221 mg/L
IC50 ([2]; Mus musculus, CT26, 48 h): 0.256 ± 0.017 mg/L
IC50 [11]: 0.411 ± 0.017 mg/L
IC50 [12]: 2.77 ± 0.492 mg/L
IC50 (C6 rat glioma cells): 0.119 ± 0.026 mg/L
IC50 (H22 mouse hepatoma cells): 5.13 ± 0.119 mg/L
IC50 [13]: 3.45 ± 0.778 mg/L
IC50 [14]: 0.447 ± 0.022 mg/L
IC50 [15]: 1.35 ± 0.331 mg/L
IC50 [16]: 0.197 ± 0.029 mg/L
IC50 [17]: 10.1 ± 1.24 mg/L
IC50 [18]: 0.214 ± 0.011 mg/L
IC50 [19]: 3.57 ± 0.153 mg/L
IC50 [20]: 2.32 ± 0.195 mg/L
IC50 [21]: 0.088 ± 0.007 mg/L
IC50 [22]: 1.82 ± 0.227 mg/L

N.N.O=C([O-])C1(C(=O)[O-])CCC1.[Pt+2] [Carboplatin]
IC50 [1]: 0.761 ± 0.044 mg/L
IC50, Compound 7+ [2, 23]: 0.192 ± 0.052 mg/L

CC1=C(O)C(=O)C=C2C1=CC=C1[C@@]2(C)CC[C@@]2(C)[C@@H]3C[C@](C)(C(=O)O)CC[C@]3(C)CC[C@]12C [Tripterine]
IC50, Compound 7+ [2]: 1.592 ± 0.142 mg/L
IC50, Compound 7− [2]: 5.219 ± 0.242 mg/L

COc1cccc2c1C(=O)c1c(O)c3c(c(O)c1C2=O)C[C@@](O)(C(=O)CO)C[C@@H]3O[C@H]1C[C@H](N)[C@@H](O)[C@H](C)O1 [Epirubicin]
IC50 [1]: 97.4 ± 3.33 mg/L (≈ 179 µM)
IC50, Compound 7+ [2, 23]: 17.125 ± 1.338 mg/L

Source: patent US20230248717A1, “N-(3-HYDROXYPYRIDINE-2-CARBONYL)GLYCINE-BASED ANTITUMOR DRUG SENSITIZER AND APPLICATION THEREOF” (ZHEJIANG UNIVERSITY, priority 2019, published 2023)
